Laboratory results as given in patent US6545028B2, “Chemical compounds having ion channel blocking activity for the treatment of immune dysfunction” (NeuroSearch A/S, priority 1997, dated 2003).

Experiments:
T cells = experiment: Inhibition of antigen induced T cell proliferation ([^3H]thymidine incorporation); assay type: cell-based; details: Antigen (crude Candida albicans extract, 10 μg/ml), 144 hours culture
Procedure: The chemical compounds used according to the invention prevent immunological proliferation by selective inhibition of the Ca^2+-activated K-channels in T- and B-lymphocytes. This effect may be verified using various proliferation assays. In this experiment the proliferative assay described by Ødum et al. [Ødum N, Kanner S B, Ledbetter J A, & Svejgaard A; J. Immunol. 1993 150 (12) 5289-5298] was used.
Assays were performed in culture medium (RPMI 1640; available from Gibco, Grand island, N.Y.) supplemented with 10% pooled human serum, 2 mM L-glutamine, 100 μg/ml penicillin, and 100 μg/ml streptomycin (available from Novo Nordisk, Copenhagen, Denmark) in 96-well round bottom tissue culture plates (available from Nunc, Roskilde, Denmark) with a final volume of 200 μl.
T cells were preincubated for three hours with the test compounds before addition of antigen (crude Candida albicans extract, 10 μg/ml). T cells were cultured at 5×10^4 cells/well for 144 hours. Twelve hours before harvest, [^3H]thymidine ([…]) was added. The cells were harvested onto glass fibre filters, and the [^3H]thymidine incorporation was measured in a scintillation counter. The results were expressed as mean counts per minute (cpm) from triplicate cultures.

[1] = target: human placenta Ca^2+-activated, intermediate conductance potassium channel protein (IKCa) (Homo sapiens, UniProt O15554); experiment: Whole cell patch clamp on HEK293 or CHO cells transfected with the human IKCa channel; assay type: cell-based; details: 1 μM Clotrimazole added to the bath solution; reversed by washout
Procedure: HEK293 or CHO tissue culture cells were grown in DMEM (Dulbecco's Modified Eagle Medium) supplemented with 10% FCS (foetal calf serum) at 37° C. in 5% CO2. One day prior to transfection, 10^6 cells were plated in a cell culture T25 flask. The following day, cells were transfected using lipofection (20 μL Lipofectamin™, Life Technologies, with 2.5 μg of the plasmid pNS2Z_hIK2 in a total volume of 540 μL). The lipofection mixture was overlaid on the cells and incubated at 37° C. for 5 hours.
The cells were then rinsed with regular media and plated to a 30 mm culture dish. 18-48 hours after, transfected cells were assayed for the presence of Ca^2+-activated, intermediate conductance potassium channel protein by electrophysiological measurements.
Whole cell currents were recorded using a pipette solution of 144 mM KCl, 1 mM EGTA, 9 mM NTA, 1.085 mM CaCl2, 5.54 mM MgCl2, and 10 mM HEPES (pH 7.2) and a bath solution of 144 mM KCl, 2 mM CaCl2, 1 mM MgCl2, 0.01% (w/v) BSA and 10 mM HEPES (pH=7.4). Current traces were recorded from cells containing human Ca^2+-activated, intermediate conductance potassium channels after application of voltage ramps (−100 mV to +100 mV, 200 ms duration).

| SMILES | T Cell Proliferation (T cells; test compound 1 μM) [cpm × 10^−3] | T Cell Proliferation (T cells; test compound 5 μM) [cpm × 10^−3] | T Cell Proliferation (T cells; test compound 10 μM) [cpm × 10^−3] | Effect on the Ca^2+-activated potassium current [1] |
| --- | --- | --- | --- | --- |
| CCOC(=O)C1=C(C)NC(C)=C(C(=O)OC)C1c1cccc([N+](=O)[O-])c1 (stereo not shown) [Nitrendipine, 1,4-dihydro-2,6-dimethyl-4-(3-nitrophenyl)pyridine-3,5-dicarboxylic acid ethyl methyl ester] | 5.6 | 3.8 | 4.0 |  |
| Clc1ccccc1C(c1ccccc1)(c1ccccc1)n1ccnc1 [Clotrimazole, 1-[(2-chlorophenyl)-diphenyl-methyl]-1H-imidazole] | 5.8 | 4.2 | 1.8 | inhibition of the Ca^2+-activated potassium current |
